What was measured:
[1] = Dissolution of the initiator in the monomer solution (appearance of the resulted mixture); format: physicochemical
Method: A monomer solution was prepared by mixing 90 g of trimethylolpropane triacrylate (TMPTA) and 2 g of butyl glycol under stirring. 4 g of the copolymeric initiator system was added into the monomer solution and stirred under room temperature for 1 hour.
A monomer solution was prepared by mixing 90 g of TMPTA, 2 g of butyl glycol, 0.24 g of chloroform and 1.76 g solvent naphtha 160/180 under stirring. 1 g of benzopinacol fine powder was added into the monomer solution and stirred under room temperature for 1 hour.
A monomer solution was prepared by mixing 90 g of TMPTA and 10 g of butyl glycol under stirring. 1 g of fine benzopinacol fine powder was added into the monomer solution and stirred under room temperature for 1 hour.
A monomer solution was prepared by mixing 90 g of TMPTA and 10 g of butyl glycol by stirring. 1 g of the compound of formula (I) was added into the monomer solution and stirred under room temperature for 1 hour.

[2] = cited from earlier work
[3] = 1 g in 90 g TMPTA and 10 g butyl glycol, stirred at room temperature for 1 hour

OC(c1ccccc1)(c1ccccc1)C(O)(c1ccccc1)c1ccccc1 [benzopinacol, 1,1,2,2-tetraphenyl-1,2-ethanediol]
Appearance of resulted mixture ([1]; 1 g fine powder in 90 g TMPTA, 2 g butyl glycol, 0.24 g chloroform and 1.76 g solvent naphtha 160/180, stirred at room temperature for 1 hour): transparent liquid with suspended fine particles
Appearance of resulted mixture [1, 3]: transparent liquid with suspended fine particles
Solubility in common organic solvents [2]: very poor solubility

C=CCOC(=O)c1ccc(C(O)(c2ccccc2)C(O)(c2ccccc2)c2ccc(C(=O)OCC=C)cc2)cc1 (stereo not shown) [compound of formula (I), allyloxycarbonyl substituted benzopinacol of formula (I)]
Appearance of resulted mixture [1, 3]: transparent liquid with suspended fine particles

— US12577341B2, “Copolymer derived from substituted benzopinacol and use of the same as polymerization initiator” (BASF COATINGS GMBH, priority 2020, dated 2026)
